Results taken from patent US8058243B2, “Method for treating a brain cancer with ifenprodil” (HSC Research and Development Limited Partnership, priority 2006, dated 2011).
Where two headings read alike, the source gives them in different places.

What was measured:
[1] = tested on: ptc1+/− medulloblastoma precursor cells (neurosphere cultures); test: Medulloblastoma tumor sphere MTT proliferation EC50; type: cell-based, mouse
Excerpt: (§1) Astrocyte Screen and Neurosphere Selectivity Assessment. […] Murine Medulloblastoma Generation and Culture. […] Flow Cytometry. […] Results

[2] = tested on: hGBM2 precursors (WHO grade IV GBM, giant cell variant); test: Human glioblastoma precursor EC50 (hGBM2); type: cell-based
[3] = tested on: neural precursors derived from human fetal CNS tissue (hFetal); test: Human fetal neural precursor EC50; type: cell-based
[4] = tested on: mouse NSC neurosphere cultures; test: Dose-response curves and EC50, neurosphere MTT proliferation, 7 days; type: cell-based
[5] = tested on: murine neural precursor cells (neurosphere cultures); test: HTS of LOPAC library against secondary neurosphere cultures, MTT proliferation assay at 3 μM, day 7 (z score, P value); type: cell-based, mouse
[6] = tested on: hGBM1 precursors (WHO grade IV GBM); test: Human glioblastoma precursor EC50 (hGBM1); type: cell-based
[7] = tested on: Ptch1+/− Trp53−/− medulloblastoma neurosphere cultures; test: Tumor sphere MTT proliferation EC50; type: cell-based, mouse; conditions: Mus musculus, read-out: Ptch1+/− Trp53−/− neurosphere EC50
Excerpt: as §1

[8] = cultures derived from mouse cerebellar tumor samples, read-out: Ptch1+/− neurosphere EC50
[9] = ptc1+/− medulloblastoma derived neurospheres, read-out: Medulloblastoma Neurosphere EC50
[10] = Table 8, read-out: Neurosphere EC50
[11] = normal mouse neurosphere cultures, MTT, 7 days, read-out: Neurosphere EC50
[12] = read-out: EC 50% Neurosphere, Table 5
[13] = LOPAC library screen, 3 μM, MTT, secondary neurosphere cultures, day 7
[14] = LOPAC primary screen, neurosphere MTT proliferation, 3 μM, day 7
[15] = Mus musculus, ptc1+/− medulloblastoma derived neurospheres, read-out: Medulloblastoma Neurosphere EC50
[16] = 168 h, normal mouse neurosphere cultures, MTT, 7 days, read-out: Neurosphere EC50
[17] = Mus musculus, read-out: EC 50% Neurosphere, Table 5
[18] = Mus musculus, Table 8, read-out: Neurosphere EC50
[19] = yes/no: significantly inhibited neurosphere proliferation (P<0.01) in the primary screen

N.N.O=C([O-])C1(C(=O)[O-])CCC1.[Pt+2] [Carboplatin (3), Carboplatin]
EC50 [1, 8]: 196 nM | EC50 [1, 9]: 196 nM | EC50 [2]: 3300 nM | EC50 [3]: 430 nM | EC50 [4, 10]: 489 nM | EC50 [4, 11]: 489 nM | EC50 [4, 12]: 489 nM | Z Score [5, 13]: −6.204 | Z score [5, 14]: −6.204 | Activity ([5]; yes = significantly inhibited neurosphere proliferation (P<0.01) in the primary screen): yes | EC50 [6]: 2.04 µM

(R)-(−)-Propylnorapomorphine [(R)-(−)-Propylnorapomorphine (5)]
EC50 [1, 8]: 199 nM | EC50 ([1]; read-out: Medulloblastoma Neurosphere EC50): 199 nM | EC50 [4, 10]: 351 nM | EC50 [4, 11]: 351 nM | EC50 [4, 12]: 351 nM | Activity [5]: yes | Z Score [5]: −8.274 | Z score [5]: −8.274

COc1cc2ncnc(Nc3ccc(O)cc3)c2cc1OC [WHI-P131 (12), 4-(4′-hydroxylphenyl)-amino-6,7-dimethoxyquinazoline]
EC50 [1, 15]: 1520 nM | EC50 [1, 8]: 1520 nM | EC50 [4, 16]: 2350 nM | EC50 [4, 17]: 2350 nM | EC50 [4, 18]: 2350 nM

C[C@@H]1C[C@@H]([C@H](O)CC2CC(=O)NC(=O)C2)C(=O)[C@@H](C)C1 [Cycloheximide (1), Cycloheximide]
EC50 ([1]; Mus musculus, read-out: Medulloblastoma Neurosphere EC50): 42 nM | EC50 ([1]; Mus musculus, read-out: Ptch1+/− neurosphere EC50): 42 nM | EC50 [7]: 54 nM

CC1=C(/C=C/C(C)=C/C=C/C(C)=C/C(=O)Nc2ccc(O)cc2)C(C)(C)CCC1 [Fenretinide (11), Retinoic acid p-hydroxyanilide]
EC50 [1, 15]: 204 nM | EC50 [1, 8]: 204 nM | EC50 [4, 16]: 334 nM | EC50 [4, 17]: 334 nM | EC50 [4, 18]: 334 nM | Z Score [5, 13]: −6.013 | Z score [5, 14]: −6.013 | Activity [5, 19]: yes

CCN(CC)CCOCCOC(=O)C1(c2ccccc2)CCCC1 [Carbetapentane (10), Carbetapentane]
EC50 [1, 15]: 2080 nM | EC50 [1, 8]: 2080 nM | EC50 ([2]; Homo sapiens): 1730 nM | EC50 [4, 16]: 756 nM | EC50 [4, 17]: 756 nM | EC50 [4, 18]: 756 nM | Z Score [5, 13]: −8.021 | Z score [5, 14]: −8.021 | Activity [5, 19]: yes | EC50 ([6]; Homo sapiens): 5.44 µM

COc1cc(CNC(=O)CCCCCCC(C)C)ccc1O [Dihydrocapsaicin (15), Dihydrocapsaicin]
EC50 [1, 15]: 20 nM | EC50 [1, 8]: 20 nM | EC50 ([2]; Homo sapiens): 21500 nM | Z Score [5, 13]: −10 | Z score [5, 14]: −10.003 | Activity [5, 19]: yes | EC50 ([6]; Homo sapiens): 88.6 µM

CCCCCCCCCCC/C=C\C(C)(C)/C=C\CCCC(=O)O [7,7-Dimethyl-(5Z,8Z)-eicosadienoic acid]
EC50 [4, 10]: 5170 nM | Z Score [5]: −3.045 | Z score [5, 14]: −3.045 | Activity [5, 19]: yes

CC[C@]1(O)C[C@@H]2CN(CCc3c([nH]c4ccccc34)[C@@](C(=O)OC)(c3cc4c(cc3OC)N(C)[C@H]3[C@@](O)(C(=O)OC)[C@H](OC(C)=O)[C@]5(CC)C=CCN6CC[C@]43[C@@H]65)C2)C1 [Vinblastine(22), Vinblastine]
EC50 [4, 18]: 28 nM

Tyrphoslin AG 34 [Tyrphoslin AG 34 (37)]
EC50 [4, 10]: 9920 nM

COc1cc([C@@H]2c3cc4c(cc3[C@@H](O[C@@H]3O[C@@H]5CO[C@@H](C)O[C@H]5[C@H](O)[C@H]3O)[C@H]3COC(=O)[C@H]23)OCO4)cc(OC)c1O [Etoposide (2), Etoposide]
EC50 [1, 15]: 208 nM | EC50 [1, 8]: 208 nM | EC50 ([2]; Homo sapiens): 270 nM | EC50 [3]: 160 nM | EC50 [4, 16]: 340 nM | EC50 [4, 17]: 340 nM | EC50 [4, 18]: 340 nM | Z Score [5, 13]: −11.1 | Z score [5, 14]: −11.102 | Activity [5, 19]: yes | EC50 ([6]; Homo sapiens): 0.62 µM

Cl.Cl.OCCN1CCN(CC/C=C2/c3ccccc3Sc3ccc(C(F)(F)F)cc32)CC1 [cis-(Z)-Flupenthixol (7), cis-(Z)-Flupenthixol]
EC50 [1, 8]: 187 nM | EC50 [1, 9]: 187 nM | EC50 [4, 10]: 199 nM | EC50 [4, 11]: 199 nM | EC50 [4, 12]: 199 nM | Z Score [5, 13]: −8.822 | Z score [5, 14]: −8.822 | Activity [5, 19]: yes

CC[C@H](C)C(=O)O[C@H]1CCC=C2C=C[C@H](C)[C@H](CC[C@@H]3C[C@@H](O)CC(=O)O3)[C@H]21 [Mevastatin (20), Mevastatin]
EC50 [4, 18]: 142 nM

CC(=O)O[C@H]1C(=O)[C@@]2(C)[C@H]([C@H](OC(=O)c3ccccc3)[C@]3(O)C[C@H](OC(=O)[C@H](O)[C@@H](NC(=O)c4ccccc4)c4ccccc4)C(C)=C1C3(C)C)[C@]1(OC(C)=O)CO[C@@H]1C[C@@H]2O [Taxol (21), Taxol]
EC50 [4, 18]: 10 nM

S=C=Nc1cccc(C2(N3CCCCC3)CCCCC2)c1 [Metaphit (35), Metaphit, reference compound]
EC50 [4, 17]: 10000 nM | EC50 [4, 18]: 10000 nM | Z Score [5]: −4.967 | Z score [5, 14]: −4.967 | Activity [5, 19]: yes

CC(C)COC(=O)OCN1C(=O)CN(CCN2CC(=O)N(COC(=O)OCC(C)C)C(=O)C2)CC1=O [Sobuzaxane (19), Sobuzaxane]
EC50 [4, 10]: 10200 nM

Oc1ccc(-c2nc(-c3ccc(F)cc3)c(-c3ccncc3)[nH]2)cc1 [SB 202190 (13)]
EC50 [1, 8]: 3010 nM | EC50 [1, 9]: 3010 nM | EC50 [4, 10]: 8060 nM | EC50 [4, 11]: 8060 nM | EC50 [4, 12]: 8060 nM | Z Score ([5]; LOPAC library screen at 3 μM, secondary neurosphere cultures, MTT): −1.124 | Z score ([5]; LOPAC screen, neurosphere MTT proliferation, 3 μM, day 7): −1.124 | Activity ([5]; yes/no: significantly inhibited neurosphere proliferation (P<0.01) in primary screen): no
